The structures appear in SMILES notation. ≈ marks a conversion by molar mass, not a printed value. Calls of active or inactive are those of the source. The calls are words filed in the database; no cut-off is given here.

The test system of data set [1] is Vero. As to the kind of experiment: Cytotoxicity against african green monkey Vero cells by EPTT method. It is filed as cell-based. To be noted: chlorocebus sabaeus.
Data set [2] has as its system Human alphaherpesvirus 2. As to the kind of experiment: Antiviral activity against HSV2 infected in human HeP2 ells. The data set is classed as functional.
Data set [3] has as its system HeLa. As to the kind of experiment: Cytotoxicity against human HeLa cells after 48 hrs. The data set is classed as functional.
The test system of data set [4] is CHO. As to the kind of experiment: Cytotoxicity against CHO cells after 48 hrs. It is filed as cell-based, Cricetulus griseus. To be noted: chinese hamster.
The nature of data set [5]: Cytotoxicity against bovine Bon-Fib cells after 48 hrs. It is filed as cell-based, Bos taurus. To be noted: cattle.
For data set [6], the system named is HeLa. As to the kind of experiment: Cytotoxicity against human HeLa cells after 48 hrs by MTT assay. The data set is classed as functional. (Tetrazolium assays rely on reduction of a dye to a coloured formazan, in cell work by metabolically active cells.)
Data set [7] has as its system HEp-2. As to the kind of experiment: Cytotoxicity against human Hep2 cells after 48 hrs by MTT assay. To be noted: HEp-2, 48 h. It is filed as functional.
A short description of data set [8]: Cytotoxicity against CHO cells after 48 hrs by MTT assay. Particulars: chinese hamster. It is filed as cell-based, Cricetulus griseus.
Data set [9] can be described thus: Cytotoxicity against bovine Bon-Fib cells after 48 hrs by MTT assay. The data set is classed as cell-based, Bos taurus. Particulars: cattle.
The test system of data set [10] is Human alphaherpesvirus 1. Nature of the data set: Antiviral activity against HSV1 infected in mouse P388 cells. The data set is classed as functional, organism-based. To be noted: Human alphaherpesvirus 1, P388.
Data set [11] has as its system P388. As to the kind of experiment: Antitumor activity against mouse P388 cells. It is filed as functional, cell-based.
For data set [12], the system named is L1210. As to the kind of experiment: Cytotoxicity against mouse L1210 cells. It is filed as functional, cell-based.
Data set [13] relates to KB. Nature of the data set: Cytotoxicity against human KB cells. It is filed as functional, cell-based.
Data set [14] can be described thus: Cytotoxicity against pig PS cells. The data set is classed as cell-based, Sus scrofa. To be noted: read-out: ED50 (the source's name).
For data set [15], the system named is HEp-2. As to the kind of experiment: Cytotoxicity against human Hep2 cells after 48 hrs. It is filed as functional.

Turning to `CC1(C)CCC[C@]2(C)[C@H]3CC[C@@]4(O)C(=O)OC[C@H]4[C@]3(C)CC[C@@H]12`, the CC100 in data set [1] worked out at 50 µg/mL. The Activity in [2] was determined as 25 µg/mL.

`CC1(C)CCC[C@]2(C)[C@H]3CCc4cocc4[C@]3(C)CC[C@@H]12` had a CC100 in [1] of 120 µg/mL. The compound further registered an Activity in data set [2] of 60 µg/mL.

For the compound `COC(=O)[C@@H]1CC[C@@H]2[C@@]3(C)CCCC(C)(C)[C@@H]3CC[C@]23C(O)OC[C@H]13` (stereo partly drawn), the CC100 is 30 µg/mL in [1], 60 µg/mL in data set [3], 30 µg/mL in data set [4] and over 120 µg/mL in [5]. In addition, the result in data set [2] was inactive. The values for the CC50 in [6] and in [7] were 37.6 µg/mL (≈ 107 µM) and 21.8 µg/mL (≈ 62.3 µM), respectively. The figures for the CC50 at 48 h in data set [8] and in data set [9] were 24.5 µg/mL (≈ 69.9 µM) and over 120 µg/mL, respectively.

With `C[C@]12CC(=O)[C@@H](O)[C@](C)(CO)[C@@H]1CC[C@@]1(C)c3cocc3CC[C@H]21` [SPONGIADIOL], the results for the IC50 in data set [10] and in data set [11] were 0.25 µg/mL (≈ 0.752 µM) and 0.5 µg/mL (≈ 1.5 µM), respectively.

With `CC(=O)OC[C@@H]1[C@H]2CC[C@@H]3[C@@]4(C)CCCC(C)(C)[C@@H]4CC[C@@]13COC2=O`, the CC100 came to 28 µg/mL in data set [1], 18 µg/mL in [3], 36 µg/mL in data set [4] and 36 µg/mL in [5]. The Activity in [2] was 14 µg/mL. Besides, the CC50 came out at 16.5 µg/mL (≈ 45.5 µM) in data set [6] and 10.1 µg/mL (≈ 27.7 µM) in data set [7]. In addition, the CC50 at 48 h was determined as 21.5 µg/mL (≈ 59.4 µM) in data set [8] and 15.9 µg/mL (≈ 43.8 µM) in data set [9].

Consider `CC1(C)CCC[C@]2(C)[C@H]3CC=C4C(=O)OC[C@H]4[C@]3(C)CC[C@@H]12` [ISOAGATHOLACTONE], for which the CC100 in data set [1] amounted to 40 µg/mL. Moreover, the outcome in data set [2] was inactive.

For `CC1(C)CCC[C@]2(C)[C@H]3CC[C@H]4C(=O)OC[C@]3(CC[C@@H]12)[C@@H]4CO`, in data set [1], the CC100 was found to be 37.5 µg/mL. The same compound gave an Activity in data set [2] of 18.7 µg/mL.

Take `C[C@]12C[C@@H](O)C(=O)[C@](C)(CO)[C@@H]1CC[C@@]1(C)c3cocc3CC[C@H]21` [ISOSPONGIADIOL]: the IC50 in [10] was 2 µg/mL (≈ 6.02 µM); in [11], 5 µg/mL (≈ 15 µM).

For `C[C@]12CC(=O)[C@H](O)[C@](C)(CO)[C@@H]1CC[C@@]1(C)c3cocc3CC[C@H]21` [EPISPONGIADIOL], the figures for the IC50 in [10] and in [11] were 12.5 µg/mL (≈ 37.6 µM) and 8 µg/mL (≈ 24.1 µM), respectively.

On to `CO[C@H]1CC[C@]2(C)[C@H]3CCc4cocc4[C@]3(C)CC[C@H]2[C@@H]1C`, for which the CC100 is 28 µg/mL in data set [1], 18 µg/mL in data set [3], 36 µg/mL in data set [4] and 36 µg/mL in [5]. The compound also yielded an Activity in data set [2] of 15 µg/mL. Also, the figures for the CC50 in data set [6] and in [7] were 13.6 µg/mL (≈ 44.9 µM) and 10.4 µg/mL (≈ 34.5 µM), respectively. Moreover, the results for the CC50 at 48 h in data set [8] and in [9] were 13.3 µg/mL (≈ 44 µM) and 17.9 µg/mL (≈ 59.2 µM), respectively.

`CO[C@@H]1OC2OC(=O)[C@@H]3CC[C@@H]4[C@@]5(C)CCCC(C)(C)[C@@H]5CC[C@]14[C@H]23` (stereo partly drawn) had a CC100 in data set [1] of 120 µg/mL. This compound displayed an Activity in data set [2] of 60 µg/mL.

Take `CC1(C)CCC[C@]2(C)[C@H]3CC[C@H]4C(=O)OC5OC[C@H]4[C@@]53CC[C@@H]12`: the CC100 in data set [1] was 58 µg/mL. This compound came in with an Activity in data set [2] of 29 µg/mL.

Turning to `CC1(C)C(=O)CC[C@]2(C)[C@H]3CCc4cocc4[C@]3(C)CC[C@@H]12`, the CC100 in data set [1] was found to be 28 µg/mL; in data set [4], 30 µg/mL; in [5], 40 µg/mL. Also, the outcome in data set [2] was inactive.

Consider `CC(=O)O[C@H]1C=C2C(=O)OC[C@@]2(O)[C@]2(C)[C@@H](OC(C)=O)C[C@H]3C(C)(C)CCC[C@]3(C)[C@@H]12` [DORISENONE A], for which the IC50 came out at 0.21 µg/mL (≈ 0.483 µM) in data set [12] and 0.22 µg/mL (≈ 0.506 µM) in data set [13].

Regarding `CC1(C)CCC[C@]2(C)[C@H]3CC[C@H]4C(=O)OC5O[C@@H](O)[C@]3(CC[C@@H]12)[C@H]54` (stereo partly drawn) [DENDRILLOL- 1], the CC100 in [1] worked out at 8 µg/mL; in data set [4] it was 13 µg/mL; in [5], 13 µg/mL. Also, the outcome in data set [2] was inactive. Moreover, the CC50 came to 14.8 µg/mL (≈ 44.3 µM) in [6] and 3.46 µg/mL (≈ 10.3 µM) in data set [7]. Besides, the CC50 at 48 h came to 5.1 µg/mL (≈ 15.2 µM) in data set [8] and 18.9 µg/mL (≈ 56.4 µM) in [9].

For `CC(=O)O[C@@H]1OC2OC(=O)[C@@H]3CC[C@@H]4[C@@]5(C)CCCC(C)(C)[C@@H]5CC[C@]14[C@H]23` (stereo partly drawn), the CC100 in data set [1] is over 120 µg/mL. Further, the Activity in data set [2] was found to be 120 µg/mL.

As for `CC[C@]1(O)C[C@H]2CN(CCc3c([nH]c4ccccc34)[C@@](C(=O)OC)(c3cc4c(cc3OC)N(C=O)[C@H]3[C@@](O)(C(=O)OC)[C@H](OC(C)=O)[C@]5(CC)C=CCN6CC[C@]43[C@@H]65)C2)C1` [VINCRISTINE], the CC50 in data set [6] and in [7] was 0.05 µg/mL (≈ 0.0606 µM) each time. Moreover, the CC50 at 48 h was found to be 1.15 µg/mL (≈ 1.39 µM) in data set [8] and 0.61 µg/mL (≈ 0.739 µM) in data set [9].

With `Nc1nc2c(ncn2COCCO)c(=O)[nH]1` [ACYCLOVIR], in data set [1], the CC100 is over 600 µg/mL. Also, in data set [2], the Activity is 6 µg/mL.

Turning to `CC1(C)CCC[C@]2(C)[C@H]3CC[C@]4(O)C(=O)OC[C@H]4[C@]3(C)CC[C@@H]12`, in data set [1], the CC100 was 56 µg/mL. The compound further displayed an Activity in data set [2] of 28 µg/mL.

As to `CCCC(=O)O[C@@H]1C[C@H]2C(C)(C)CCC[C@]2(C)[C@H]2CC[C@H]3C(=O)O[C@H]4O[C@@H](O)[C@]21[C@H]43`, the CC50 in [14] was 6.5 µg/mL (≈ 15.5 µM).

As for `CC1(C)CCC[C@]2(C)[C@H]3CC[C@H]4C(=O)OC[C@H]4[C@]3(C=O)CC[C@@H]12`, the CC100 in data set [1] came out at 28 µg/mL; in data set [4], 20 µg/mL; in data set [5], 40 µg/mL. This compound yielded an Activity in data set [2] of 14 µg/mL. Besides, the CC50 in data set [6] came out at 14.2 µg/mL (≈ 44.5 µM); in data set [7], 9.56 µg/mL (≈ 30 µM). Also, the CC50 at 48 h in data set [8] is 13.2 µg/mL (≈ 41.3 µM); in data set [9], 19 µg/mL (≈ 59.6 µM).

In the case of `CC(=O)O[C@H]1OC(=O)[C@@H]2CC[C@@H]3[C@@]4(C)CCCC(C)(C)[C@@H]4CC[C@@]3(C=O)[C@H]12`, the CC100 in data set [1] was 9 µg/mL; in data set [3] it was 12 µg/mL; in data set [15], 12 µg/mL; in data set [4], 24 µg/mL; in data set [5], 24 µg/mL. In addition, the Activity in [2] was determined as 4.5 µg/mL. Moreover, the CC50 in data set [6] worked out at 6.27 µg/mL (≈ 16.7 µM); in [7], 4.43 µg/mL (≈ 11.8 µM). Besides, the figures for the CC50 at 48 h in data set [8] and in data set [9] were 4.96 µg/mL (≈ 13.2 µM) and 18.3 µg/mL (≈ 48.6 µM), respectively.

For orientation: IC50 means the concentration at which inhibition is half-maximal.

The values are drawn from ChEMBL document CHEMBL1159320, “Cytotoxic effect (on tumor cells) and in vitro antiviral activity against herpes simplex virus of synthetic spongiane diterpenes” (J Nat Prod, 2002).
